Assay results: ChEMBL document CHEMBL4732150 (J Med Chem, 2021)
The source made the active and inactive calls. No cut-off for these calls is given here.

Assays:
[1] = tested on: NCI-H1975; test: Antiproliferative activity against human NCI-H1975 cells assessed as reduction in cell viability incubated for 72 hrs by sulforhodamine B assay; assay type: functional, cell-based; details: NCI-H1975, 72 h
[2] = tested on: A-431; test: Antiproliferative activity against human A-431 cells assessed as reduction in cell viability incubated for 72 hrs by sulforhodamine B assay; assay type: functional, cell-based; details: A-431, 72 h
[3] = Selectivity ratio of IC50 for antiproliferative activity against human A-431 cells to IC50 for antiproliferative activity against human NCI-H1975 cells; assay type: functional
[4] = tested on: BaF3; test: cells; details: Mus musculus, BaF3, 72 h
[5] = tested on: BaF3; test: cells; details: Mus musculus, BaF3, 72 h; remark: listed apart in the source
[6] = Cmax in Sprague-Dawley rat assessed as AZ5104 at 6 mg/kg/day, IG administered as single dose and measured up to 24 hrs by LC-MS/MS analysis; assay type: ADME, organism-based; parameters: route […], dose 6 mg/kg/day, time <=24; details: in vivo, po
[7] = Apparent oral clearance in Sprague-Dawley rat at 6 mg/kg/day, IG administered as single dose and measured up to 24 hrs by LC-MS/MS analysis; assay type: ADME, organism-based; details: in vivo
[8] = Intrinsic clearance in cynomolgus monkey liver microsomes preincubated for 10 mins under shaking condition followed by NADPH generating system addition and measured up to 60 mins by LC-MS/MS analysis; assay type: ADME, Macaca fascicularis, Microsome; details: 1 h, time <=70 min
[9] = Intrinsic clearance in human liver microsomes preincubated for 10 mins under shaking condition followed by NADPH generating system addition and measured up to 60 mins by LC-MS/MS analysis; assay type: ADME, Microsome; details: 1 h, time <=70 min
[10] = Tmax in Sprague-Dawley rat assessed as AZ5104 at 6 mg/kg/day, IG administered as single dose and measured up to 24 hrs by LC-MS/MS analysis; assay type: ADME, organism-based; details: in vivo, po
[11] = Cmax in Sprague-Dawley rat at 6 mg/kg/day, IG administered as single dose and measured up to 24 hrs by LC-MS/MS analysis; assay type: ADME, organism-based; parameters: route […], dose 6 mg/kg/day, time <=24; details: in vivo, po
[12] = Intrinsic clearance in Beagle dog liver microsomes preincubated for 10 mins under shaking condition followed by NADPH generating system addition and measured up to 60 mins by LC-MS/MS analysis; assay type: ADME, Canis lupus familiaris, Microsome; details: 1 h, time <=70 min
[13] = in vivo; details: Sprague-Dawley, rat, po, 6 mg/kg
[14] = Half life in CD1 mouse liver microsomes preincubated for 10 mins under shaking condition followed by NADPH generating system addition and measured up to 60 mins by LC-MS/MS analysis
[15] = Intrinsic clearance in Sprague-Dawley rat liver microsomes preincubated for 10 mins under shaking condition followed by NADPH generating system addition and measured up to 60 mins by LC-MS/MS analysis; assay type: ADME, Microsome; details: 1 h, time <=70 min
[16] = in vitro; details: human, liver microsomes
[17] = Half life in cynomolgus monkey liver microsomes preincubated for 10 mins under shaking condition followed by NADPH generating system addition and measured up to 60 mins by LC-MS/MS analysis
[18] = Toxicity in Balb/c nude mouse xenografted with human NCI-H1975 cells harboring EGFR L858R/T790M mutant assessed as change in body weight at 1.5 to 2.5 mg/kg, po QD administered via gavage for 24 days and measured twice weekly; assay type: organism-based; details: in vivo, 576 h, dose 1.5-2.5 mg/kg, time 24 day
[19] = Half life in Beagle dog liver microsomes preincubated for 10 mins under shaking condition followed by NADPH generating system addition and measured up to 60 mins by LC-MS/MS analysis
[20] = Half life in Sprague-Dawley rat liver microsomes preincubated for 10 mins under shaking condition followed by NADPH generating system addition and measured up to 20 mins by LC-MS/MS analysis
[21] = Intrinsic clearance in CD1 mouse liver microsomes preincubated for 10 mins under shaking condition followed by NADPH generating system addition and measured up to 60 mins by LC-MS/MS analysis; assay type: ADME, Microsome; details: 1 h, time <=70 min
[22] = tested on: BaF3; test: Antitumor activity against mouse BAF3 cells harboring EGFR del19/T790M mutant xenografted in Balb/c nude mouse assessed as suppression of tumor growth at 3 to 5 mg/kg, po QD administered via gavage for 18 days relative to control; assay type: functional, organism-based; details: dose 3-5 mg/kg, time 18.0 day, tested as the 2H-labelled form

Row | Structure (SMILES) | IC50 [1] [nM] | IC50 [2] [nM] | Ratio IC50 [3] | other results
1 | C/C=C/C(=O)Nc1cc(Nc2nccc(-c3cn(C)c4ccccc34)n2)c(OC)cc1N(C)CCN(C)C | 496 | 5790 | 12 | 
2 | C=C(Cl)C(=O)Nc1cc(Nc2nccc(-c3cn(C)c4ccccc34)n2)c(OC)cc1N(C)CCN(C)C | 241 | 1550 | 6 | 
3 | C=C(C)C(=O)Nc1cc(Nc2nccc(-c3cn(C)c4ccccc34)n2)c(OC)cc1N(C)CCN(C)C | 486 | 5340 | 11 | 
4 | [2H]C([2H])=CC(=O)Nc1cc(Nc2nccc(-c3cn(C([2H])([2H])[2H])c4ccccc34)n2)c(OC)cc1N(C)CCN(C)C | […] | […] |  | IC50 [4]: 18 nM; IC50 [5]: 3.5 nM
5 | C=CC(=O)Nc1cc(Nc2nccc(-c3cn(C)c4ccccc34)n2)c(OC)cc1N(C)CCN(C)C [OSIMERTINIB] |  | […] |  | Cmax [6]: 6.4 nM; CL/F [7]: 313 mL/min/kg; CLint [8]: 41.7 µL/min/mg; CLint [9]: 8.1 µL/min/mg; IC50 [4]: 21.5 nM; Tmax [10]: 380 min; Cmax [11]: 145 nM; CLint [12]: 53.2 µL/min/mg; half-life at 24 h [13]: 227 min; half-life at 1 h [14]: 22.3 min; CLint [15]: 37.6 µL/min/mg; half-life at 1 h [16]: […]; IC50 [5]: 4 nM; half-life at 1 h [17]: […]; Activity [18]: Toxic; half-life at 1 h [19]: 26.1 min; half-life at 20 min [20]: 36.8 min; CLint [21]: 62.1 µL/min/mg; Activity [22]: Active
6 | C=C(C(=O)Nc1cc(Nc2nccc(-c3cn(C)c4ccccc34)n2)c(OC)cc1N(C)CCN(C)C)C(F)(F)F | 546 | 11200 | 21 | 
7 | C=C(Br)C(=O)Nc1cc(Nc2nccc(-c3cn(C)c4ccccc34)n2)c(OC)cc1N(C)CCN(C)C | 147 | 1060 | 7 | 
8 | C=C(F)C(=O)Nc1cc(Nc2nccc(-c3cn(C)c4ccccc34)n2)c(OC)cc1N(C)CCN(C)C | 208 | 2500 | 12 | 
